Experimental data taken from ChEMBL document CHEMBL5346925, “3,4-Dihydrobenzo[e][1,2,3]oxathiazine 2,2-dioxide analogs act as potential AMPA receptor potentiators with antidepressant activity” (Eur J Med Chem, 2023).
pEC50: −log10 of the molar value. Activity calls are given as the source filed them. The rule behind the calls is not given here.

Assays:
[1] = target: T1, Glutamate receptor ionotropic, AMPA (Rattus norvegicus) (UniProt P19491+P19492+P19493+P19490); experiment: Agonist activity at AMPA receptor in rat Primary neuron cells assessed as increase in fluorescence level at 1 uM incubated for 1 hr by calcium 2+ influx assay relative to s-AMPA coupled TAK-137; format: cell-based
[2] = target: T1, Glutamate receptor ionotropic, AMPA (Rattus norvegicus); experiment: Agonist activity at AMPA receptor in rat Primary neuron cells assessed as potentiation of s-AMPA induced calcium flux at 1 uM incubated for 1 hr by calcium 2+ influx assay relative to s-AMPA coupled TAK-137; format: cell-based; conditions: filed as agonist
[3] = target: Glutamate receptor ionotropic, AMPA (Rattus norvegicus, UniProt P19490+P19491+P19492+P19493); experiment: Agonist activity at AMPA receptor in rat Primary neuron cells; format: cell-based
[4] = target: T1, Glutamate receptor ionotropic, AMPA (Rattus norvegicus); experiment: Agonist activity at AMPA receptor in rat Primary neuron cells relative to control; format: cell-based; conditions: filed as agonist
[5] = Half life in Sprague-Dawley rat at 0.1 mg/kg, iv by LC-MS/MS analysis; format: ADME, organism-based; conditions: in vivo
[6] = Half life in Sprague-Dawley rat at 1 mg/kg, po by LC-MS/MS analysis; format: ADME, organism-based; conditions: in vivo
[7] = Cmax in Sprague-Dawley rat at 0.1 mg/kg, iv by LC-MS/MS analysis; format: ADME, organism-based; design: dose 0.1 mg/kg, route iv; conditions: in vivo
[8] = Cmax in Sprague-Dawley rat at 1 mg/kg, po by LC-MS/MS analysis; format: ADME, organism-based; design: dose 1 mg/kg, route po; conditions: in vivo
[9] = AUC (0 to t) in Sprague-Dawley rat at 1 mg/kg, po by LC-MS/MS analysis; format: ADME, organism-based; design: dose 1 mg/kg, route po; conditions: in vivo
[10] = AUC (0 to t) in Sprague-Dawley rat at 0.1 mg/kg, iv by LC-MS/MS analysis; format: ADME, organism-based; design: dose 0.1 mg/kg, route iv; conditions: in vivo
[11] = AUC (0 to infinity) in Sprague-Dawley rat at 0.1 mg/kg, iv by LC-MS/MS analysis; format: ADME, organism-based; design: dose 0.1 mg/kg, route iv; conditions: in vivo
[12] = AUC (0 to infinity) in Sprague-Dawley rat at 1 mg/kg, po by LC-MS/MS analysis; format: ADME, organism-based; design: dose 1 mg/kg, route po; conditions: in vivo
[13] = MRT (0 to t) in Sprague-Dawley rat at 0.1 mg/kg, iv by LC-MS/MS analysis; format: ADME, organism-based; conditions: in vivo
[14] = MRT (0 to t) in Sprague-Dawley rat at 1 mg/kg, po by LC-MS/MS analysis; format: ADME, organism-based; conditions: in vivo
[15] = MRT (0 to infinity) in Sprague-Dawley rat at 0.1 mg/kg, iv by LC-MS/MS analysis; format: ADME, organism-based; conditions: in vivo
[16] = MRT (0 to infinity) in Sprague-Dawley rat at 1 mg/kg, po by LC-MS/MS analysis; format: ADME, organism-based; conditions: in vivo
[17] = Volume of distribution at steady state in Sprague-Dawley rat at 0.1 mg/kg, iv by LC-MS/MS analysis; format: ADME, organism-based; conditions: in vivo, read-out: Vdss
[18] = Clearance in Sprague-Dawley rat at 0.1 mg/kg, iv by LC-MS/MS analysis; format: ADME, organism-based; conditions: in vivo
[19] = Oral bioavailability in Sprague-Dawley rat at 1 mg/kg by LC-MS/MS analysis; format: ADME, organism-based; conditions: in vivo
[20] = Drug concentration in Sprague-Dawley rat plasma at 1 mg/kg, po measured after 0.25 hrs by LC-MS/MS analysis; format: ADME, organism-based
[21] = Drug concentration in Sprague-Dawley rat plasma at 1 mg/kg, po measured after 0.50 hrs by LC-MS/MS analysis; format: ADME, organism-based
[22] = Drug concentration in Sprague-Dawley rat plasma at 1 mg/kg, po measured after 1 hr by LC-MS/MS analysis; format: ADME, organism-based
[23] = Drug concentration in Sprague-Dawley rat plasma at 1 mg/kg, po measured after 2 hr by LC-MS/MS analysis; format: ADME, organism-based
[24] = Drug concentration in Sprague-Dawley rat plasma at 1 mg/kg, po measured after 4 hr by LC-MS/MS analysis; format: ADME, organism-based
[25] = Drug concentration in Sprague-Dawley rat plasma at 1 mg/kg, po measured after 6 hr by LC-MS/MS analysis; format: ADME, organism-based
[26] = Drug concentration in Sprague-Dawley rat plasma at 1 mg/kg, po measured after 24 hr by LC-MS/MS analysis; format: ADME, organism-based
[27] = Drug concentration in Sprague-Dawley rat brain at 1 mg/kg, po measured after 0.25 hr by LC-MS/MS analysis; format: ADME, organism-based; conditions: read-out: Ct
[28] = Drug concentration in Sprague-Dawley rat brain at 1 mg/kg, po measured after 0.50 hr by LC-MS/MS analysis; format: ADME, organism-based; conditions: read-out: Ct
[29] = Drug concentration in Sprague-Dawley rat brain at 1 mg/kg, po measured after 2 hrs by LC-MS/MS analysis; format: ADME, organism-based; conditions: read-out: Ct
[30] = Drug concentration in Sprague-Dawley rat brain at 1 mg/kg, po measured after 4 hrs by LC-MS/MS analysis; format: ADME, organism-based; conditions: read-out: Ct
[31] = Drug concentration in Sprague-Dawley rat brain at 1 mg/kg, po measured after 6 hrs by LC-MS/MS analysis; format: ADME, organism-based; conditions: read-out: Ct
[32] = Drug concentration in Sprague-Dawley rat brain at 1 mg/kg, po measured after 8 hrs by LC-MS/MS analysis; format: ADME, organism-based; conditions: read-out: Ct
[33] = Ratio of drug concentration in brain to plasma in Sprague-Dawley rat at 1 mg/kg, po measured after 1 hrs by LC-MS/MS analysis; format: ADME, organism-based; conditions: read-out: BPR
[34] = Ratio of drug concentration in brain to plasma in Sprague-Dawley rat at 1 mg/kg, po measured after 2 hrs by LC-MS/MS analysis; format: ADME, organism-based; conditions: read-out: BPR
[35] = Ratio of drug concentration in brain to plasma in Sprague-Dawley rat at 1 mg/kg, po measured after 8 hrs by LC-MS/MS analysis; format: ADME, organism-based; conditions: read-out: BPR
[36] = Ratio of drug concentration in brain to plasma in Sprague-Dawley rat at 1 mg/kg, po measured after 24 hrs by LC-MS/MS analysis; format: ADME, organism-based; conditions: read-out: BPR
Mus musculus [37] = experiment: Antidepressant activity in chronic restraint induced depressive mouse assessed as rescue in immobility time at 0.03 to 0.05 mg/kg administered for 1 day after 14th day by forced swimming test; format: functional, organism-based; conditions: dose 0.03-0.05 mg/kg
Mus musculus [38] = experiment: Antidepressant activity in chronic restraint induced depressive mouse assessed as rescue in sucrose preference at 0.03 to 0.05 mg/kg administered for 2 days after 16th day by sucrose preference test; format: functional, organism-based; conditions: dose 0.03-0.05 mg/kg, time 2.0 day
[39] = Toxicity in mouse assessed as change in body weight at 0.2 to 0.4 mg/kg, ip administered once daily for 2 weeks; format: organism-based; conditions: in vivo, 336 h, dose 0.2-0.4 mg/kg
[40] = Toxicity in mouse assessed as histopathological changes in lung at 0.2 to 0.4 mg/kg, ip administered once daily for 2 weeks and measured after 15 days by H and E staining based analysis; format: organism-based; conditions: in vivo, 360 h, dose 0.2-0.4 mg/kg, time 15 day
[41] = Toxicity in mouse assessed as histopathological changes in spleen at 0.2 to 0.4 mg/kg, ip administered once daily for 2 weeks and measured after 15 days by H and E staining based analysis; format: organism-based; conditions: in vivo, 360 h, dose 0.2-0.4 mg/kg, time 15 day
[42] = Toxicity in mouse assessed as histopathological changes in kidney at 0.2 to 0.4 mg/kg, ip administered once daily for 2 weeks and measured after 15 days by H and E staining based analysis; format: organism-based; conditions: in vivo, 360 h, dose 0.2-0.4 mg/kg, time 15 day

Compound: O=S1(=O)NCc2cccc(-c3ccc(-c4ccccc4F)cc3)c2O1
- Activity [1]: -2.6%
- Activity [2]: 80.2%
- pEC50 [3]: 6.75
- Emax [4]: 137%
- half-life [5]: 2.71 h
- half-life [6]: 4.84 h
- Cmax [7]: 152 ng/mL
- Cmax [8]: 142 ng/mL
- AUC(0-t) [9]: 805 ng·h/mL
- AUC(0-t) [10]: 120 ng·h/mL
- AUC(0-inf) [11]: 129 ng·h/mL
- AUC(0-inf) [12]: 833 ng·h/mL
- MRT last [13]: 1.46 h
- MRT last [14]: 5.22 h
- MRT inf [15]: 2.22 h
- MRT inf [16]: 6.08 h
- Vd [17]: 1.72 L/kg
- clearance [18]: 12.9 mL/min/kg
- bioavailability [19]: 67.2%
- concentration at 0.25 h [20]: 125 ng/mL
- concentration at 0.5 h [21]: 142 ng/mL
- concentration at 1 h [22]: 132 ng/mL
- concentration at 2 h [23]: 62.3 ng/mL
- concentration at 4 h [24]: 79.3 ng/mL
- concentration at 6 h [25]: 54.2 ng/mL
- concentration at 24 h [26]: 3.96 ng/mL
- concentration at 0.25 h [27]: 74.7 ng/g
- concentration at 0.5 h [28]: 150 ng/g
- concentration at 2 h [29]: 133 ng/g
- concentration at 4 h [30]: 120 ng/g
- concentration at 6 h [31]: 93 ng/g
- concentration at 8 h [32]: 37.2 ng/g
- Kp at 1 h [33]: 1.63
- Kp at 2 h [34]: 2.15
- Kp at 8 h [35]: 1.5
- Kp at 24 h [36]: 1.48
- Activity (Mus musculus [37]): Active
- Activity (Mus musculus [38]): Active
- Activity [39]: Non-Toxic
- Activity [40]: Non-Toxic
- Activity [41]: Non-Toxic
- Activity [42]: Non-Toxic
